Experimental data published in ChEMBL document CHEMBL1201862, “PubChem BioAssay data set” (2004).
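Compound exposure: 48 hours, 5 concentrations, 96-well plates. GI50 is the concentration that inhibits growth by half.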 Calls of active or inactive are those of the source. Rule as the data show it: active = GI50 up to about 1.1 µM and inactive = higher.

Tests used:
Assay in all cases: growth of human tumour cells (NCI), 48 h
XF498 = test system: XF498
RXF 631 = test system: RXF 631
M19-MEL = test system: M19-MEL
DLD-1 = test system: DLD-1
LXFL 529 = test system: LXFL 529
HOP-18 = test system: HOP-18
MDA-N = test system: MDA-N
BT-549 = test system: BT-549
MCF7 = test system: MCF7

| Compound | GI50 (XF498) | GI50 (RXF 631) | GI50 (M19-MEL) | GI50 (DLD-1) | GI50 (LXFL 529) | GI50 (HOP-18) | GI50 (MDA-N) | GI50 (BT-549) | GI50 (MCF7) |
| --- | --- | --- | --- | --- | --- | --- | --- | --- | --- |
| O=c1c2ccccc2[nH]c2c(O)ccc(O)c12 | 16.8 µM (inactive) | 21.8 µM (inactive) | 24.9 µM (inactive) | > 10 µM (inactive) | 15.1 µM (inactive) | – | – | – | – |
| COc1cc(/C=C/C(=O)c2sc(-n3nc(-c4ccccc4)cc3-c3ccccc3)nc2C)ccc1O | – | > 100 µM (inactive) | > 100 µM (inactive) | > 100 µM (inactive) | – | 26.5 µM (inactive) | – | – | – |
| O=C(CCc1cc(-c2ccco2)n(-c2ccc([N+](=O)[O-])cc2[N+](=O)[O-])n1)Nc1ccccc1 | > 100 µM (inactive) | > 100 µM (inactive) | > 100 µM (inactive) | > 100 µM (inactive) | > 100 µM (inactive) | – | – | – | – |
| Cc1cc(C)c(C(=O)OC(c2ccccc2)C(c2ccccc2)N2CCOCC2)c(C)c1 (stereo unspecified) | > 100 µM (inactive) | > 100 µM (inactive) | > 100 µM (inactive) | > 100 µM (inactive) | > 100 µM (inactive) | > 100 µM (inactive) | – | – | – |
| O=C1OC(c2ccccc2)=N/C1=C/NC(Cc1c[nH]cn1)C(=O)O (stereo unspecified) | > 100 µM (inactive) | – | > 100 µM (inactive) | > 100 µM (inactive) | > 100 µM (inactive) | – | – | – | – |
| O=C1CCC2(c3ccc(F)cc3)Nc3ncccc3N12 (stereo unspecified) | > 100 µM (inactive) | – | > 100 µM (inactive) | > 100 µM (inactive) | > 100 µM (inactive) | – | – | – | – |
| Cc1ccc(S(=O)(=O)N2CCN(C=S)CC2)cc1 | – | > 100 µM (inactive) | > 100 µM (inactive) | > 100 µM (inactive) | > 100 µM (inactive) | > 100 µM (inactive) | – | – | – |
| CC1=C(O)C(=O)C2C(=O)C1C(C)C2c1ccc(Cl)cc1 (stereo unspecified) | > 100 µM (inactive) | > 100 µM (inactive) | > 100 µM (inactive) | > 100 µM (inactive) | > 100 µM (inactive) | – | – | – | – |
| O=C(CO)CC(=O)C(=O)Nc1cccc(C(F)(F)F)c1 | > 100 µM (inactive) | – | – | > 100 µM (inactive) | > 100 µM (inactive) | – | – | – | – |
| Cc1cc(=O)n(-c2cc3cccccc-3n2)[nH]1 | 4.03 µM (inactive) | – | 3.95 µM (inactive) | 5.61 µM (inactive) | 3.79 µM (inactive) | 3.95 µM (inactive) | – | – | – |
| O=C(CC1Sc2ccccc2NC1=O)Nc1cccc(Cl)c1 (stereo unspecified) | 28 µM (inactive) | – | 81.5 µM (inactive) | 48.4 µM (inactive) | 42.1 µM (inactive) | – | – | – | – |
| CS(=O)(=O)c1nc(Cl)c(Cl)c(C#N)c1Cl | 3.09 µM (inactive) | 20.2 µM (inactive) | – | 1.59 µM (inactive) | 1.57 µM (inactive) | 6.1 µM (inactive) | 1.83 µM (inactive) | 1.9 µM (inactive) | 3.42 µM (inactive) |
| COc1ccc(/C(Cl)=C(\C=O)c2ccc([N+](=O)[O-])cc2)cc1 | 14.8 µM (inactive) | 24.2 µM (inactive) | – | 16.7 µM (inactive) | 3.27 µM (inactive) | 34.9 µM (inactive) | – | – | – |
| CCOC(=O)NC(=O)c1cn(CCOC(=O)NCCCCCCNC(=O)OCCn2cc(C(=O)NC(=O)OCC)c(=O)[nH]c2=O)c(=O)[nH]c1=O | – | – | > 100 µM (inactive) | > 100 µM (inactive) | > 100 µM (inactive) | > 100 µM (inactive) | – | – | – |
| CCCC/C=C1\CCC(CN2CCCCC2)C1=O (stereo unspecified) | 2.3 µM (inactive) | 8.11 µM (inactive) | 8.36 µM (inactive) | 1.76 µM (inactive) | 1.7 µM (inactive) | 8.73 µM (inactive) | > 100 µM (inactive) | > 100 µM (inactive) | > 100 µM (inactive) |
| CC12N=NNC1C(=O)NC2=O (stereo unspecified) | – | – | > 100 µM (inactive) | > 100 µM (inactive) | > 100 µM (inactive) | – | – | – | – |
| COC(=O)CCC(=O)Nc1cccc(C(F)(F)F)c1 | > 100 µM (inactive) | – | > 100 µM (inactive) | > 100 µM (inactive) | > 100 µM (inactive) | > 100 µM (inactive) | – | – | – |

| Compound | GI50 (XF498) | GI50 (RXF 631) | GI50 (M19-MEL) | GI50 (DLD-1) | GI50 (LXFL 529) | GI50 (HOP-18) | GI50 (MDA-N) | GI50 (BT-549) | GI50 (MCF7) |
| --- | --- | --- | --- | --- | --- | --- | --- | --- | --- |
| CCCCCCC(=O)C/C(=N/NC(N)=S)C(=O)NC1C2CC3CC(C2)CC1C3 (stereo unspecified) | – | – | > 100 µM (inactive) | > 100 µM (inactive) | > 100 µM (inactive) | – | – | – | – |
| Cc1cc2c(C)nn(Cc3ccc(Cl)cc3Cl)c2c(C#N)c1C | 29.1 µM (inactive) | – | > 100 µM (inactive) | > 100 µM (inactive) | 82.4 µM (inactive) | > 100 µM (inactive) | – | – | – |
| COC12C=C(C)C(CC1)CC2C(=O)O (stereo unspecified) | > 100 µM (inactive) | – | > 100 µM (inactive) | > 100 µM (inactive) | > 100 µM (inactive) | > 100 µM (inactive) | – | – | – |
| C[C@@]1(CO)[C@H](O)CC[C@@]2(C)[C@H]1CC[C@H]1C[C@@H]3C[C@@]12CC[C@@]3(O)COC(=O)CN | – | – | – | – | > 100 µM (inactive) | > 76 µM (inactive) | 16.9 µM (inactive) | 42.3 µM (inactive) | – |
| S=C1SCC2CCCN12 (stereo unspecified) | – | > 100 µM (inactive) | > 100 µM (inactive) | > 100 µM (inactive) | > 100 µM (inactive) | > 100 µM (inactive) | – | – | – |
| C=CCSc1ncnc2c1ncn2C1OC(CO)C(O)C1O (stereo unspecified) | > 100 µM (inactive) | – | > 100 µM (inactive) | 2.75 µM (inactive) | – | > 100 µM (inactive) | – | – | – |
| CC(C)(C)[Si](C)(C)OC1C(=O)C[C@H]2CCCC[C@@H]12 (stereo partly specified) | > 100 µM (inactive) | – | 87.9 µM (inactive) | > 100 µM (inactive) | > 100 µM (inactive) | > 100 µM (inactive) | – | – | – |
| CC[C@@H](C)[C@@H]1NC(=O)C(C(C)=O)=C1O | 80.9 µM (inactive) | 15.1 µM (inactive) | 11.9 µM (inactive) | 20.9 µM (inactive) | 20.7 µM (inactive) | 12.9 µM (inactive) | – | – | – |
| CCCCCC/C=C1\CCC(CN2CCOCC2)C1=O (stereo unspecified) | 16.1 µM (inactive) | – | – | 10.5 µM (inactive) | 3.3 µM (inactive) | 0.807 µM (active) | – | – | – |
| Cn1c(=O)cc2[nH]c3ccccc3n2c1=O | – | 29.6 µM (inactive) | 33.7 µM (inactive) | 40.2 µM (inactive) | 42.8 µM (inactive) | 61.7 µM (inactive) | – | – | – |
| Nc1nc2[nH]cnc2c(=O)[nH]1 | > 100 µM (inactive) | – | > 100 µM (inactive) | > 100 µM (inactive) | > 100 µM (inactive) | > 100 µM (inactive) | – | – | – |
| NC1CCC[C@H]1O (stereo partly specified) | > 100 µM (inactive) | > 100 µM (inactive) | > 100 µM (inactive) | > 100 µM (inactive) | – | > 100 µM (inactive) | – | – | – |
| COc1cccc2c1C(=O)c1c(O)c3c(c(O)c1C2=O)C[C@@](O)(C(=O)CO)CC3OC1CC(NCCOCC(OC(C)=O)OC(C)=O)C(O)C(C)O1 (stereo partly specified) | < 0.01 µM (active) | – | < 0.01 µM (active) | 0.01 µM (active) | < 0.01 µM (active) | < 0.01 µM (active) | – | – | – |
| COC(=O)[C@@]1(C(C)CC(=O)O)CCCCC1=O (stereo partly specified) | > 100 µM (inactive) | – | > 100 µM (inactive) | > 100 µM (inactive) | > 100 µM (inactive) | > 100 µM (inactive) | – | – | – |
| CC(C)(C)OC(=O)C#CC[C@H]1CCCC1/C=C/C(O)=C1/C(=O)NC(CCCNC(=O)OC(C)(C)C)C1=O (stereo partly specified) | – | 19.4 µM (inactive) | 25.9 µM (inactive) | 53 µM (inactive) | 21.8 µM (inactive) | 25.7 µM (inactive) | – | – | – |
| Cn1cnc([N+](=O)[O-])c1Sc1nc2ccccc2o1 | 6.44 µM (inactive) | 4.05 µM (inactive) | 8.43 µM (inactive) | 4.13 µM (inactive) | 3.08 µM (inactive) | 0.389 µM (active) | – | – | – |
